Test results: PMC3448056, “2-Benzamido-N-(1H-benzo[d]imidazol-2-yl)thiazole-4-carboxamide derivatives as potent inhibitors of CK1δ/ε” (Amino Acids, 2012)
Where two headings read alike, the source gives them in different places.

Key:
GST-mouse CK1δTV2 = target: T1, GST-mouse CK1δTV2 (Mus musculus, UniProt Q9DC28); test: In vitro kinase assay, GST-mouse CK1δTV2; format: biochemical
T1 construct: made in house; host or cells: bacteria (pGEX-2T)
T1 sequence (Q9DC28 1-409 isoform Q9DC28-2): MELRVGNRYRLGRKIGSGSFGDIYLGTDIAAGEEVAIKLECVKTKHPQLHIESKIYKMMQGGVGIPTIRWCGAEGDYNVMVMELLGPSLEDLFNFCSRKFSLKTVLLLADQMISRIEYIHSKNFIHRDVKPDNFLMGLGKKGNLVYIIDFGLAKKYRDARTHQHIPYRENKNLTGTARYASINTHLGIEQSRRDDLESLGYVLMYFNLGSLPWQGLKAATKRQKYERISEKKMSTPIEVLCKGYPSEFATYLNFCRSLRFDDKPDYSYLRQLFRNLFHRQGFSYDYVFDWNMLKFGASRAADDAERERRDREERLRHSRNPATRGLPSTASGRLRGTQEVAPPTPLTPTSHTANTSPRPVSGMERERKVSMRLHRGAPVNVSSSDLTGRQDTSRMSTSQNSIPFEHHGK
Text: CK1δTV1 and 2 (transcription variants 1 and 2) were PCR amplified from mouse cDNA (5′-primer TV1 and 2: 5′-[…]-3′, 3′-primer TV1: 5′-[…]-3′, 3′-primer TV2: 5′-[…]-3′) and cloned into pcDNA3.1/V5-His© TOPO® TA cloning vector (Invitrogen, Karlsruhe, Germany) before being subcloned into pGEX-2T expression vector via BamHI to generate plasmids pGEX-2T-mouse CK1δTV1 (FP1170) and pGEX-2T-mouse CK1δTV2 (FP1171).
Expression and purification of the GST-fusion proteins GST-mouse p53^1–64 (FP267), GST-rat CK1δ (FP449), GST-rat CK1δ^M82F (FP1153), GST-mouse CK1δTV1 (FP1170), and GST-mouse CK1δTV2 (FP1171) was carried out as described elsewhere (Wolff et al. [2005]). Expression of fusion proteins FP1170 and 1171 was either performed at 37°C for 2 h, or at 15°C for 14 h. FP449 and FP1153 were always expressed at 15°C for 14 h.
In vitro kinase assays were carried out in the presence of various potential inhibitors of CK1δ at an ATP concentration of 0.01 mM and dimethyl sulfoxide (DMSO) solvent control as described previously (Knippschild et al. [1996]). Where indicated higher ATP concentrations (0.05, 0.1, 0.25 and 0.5 mM) were used. The fusion protein GST-mouse p53^1−64 (FP267) was used as substrate. Recombinant CK1δ kinase domain (CK1δkd, NEB, Frankfurt am Main, Germany), GST-rat CK1δ (FP449), GST-rat CK1δ^M82F (FP1153), GST-mouse CK1δTV1, GST-mouse CK1δTV2 and recombinant human CK1ε (Invitrogen, Karlsruhe, Germany) were used as sources of enzyme. Phosphorylated proteins were separated by SDS-PAGE and the protein bands were visualized on dried gels by autoradiography. The phosphorylated protein bands were excised and quantified by Cherenkov counting.

OVCAR-3 cells = test: Flow cytometry cell cycle analysis; format: cell-based, human; conditions: 48 h
Procedure: (§1) Frwt648 cells [generated by SV40-transformation of F111 cells; (Hinzpeter and Deppert [1987])] and mKSA cells [SV40-transformed Balb/c fibroblasts; (Kit et al. [1969])] were grown in Dulbecco’s modified Eagle’s medium (DMEM) supplemented with 5% fetal calf serum (FCS; Biochrom, Berlin, Germany). The fibrosarcoma cell line HT1080 (Rasheed et al. [1974]) was grown in DMEM containing 10% FCS and 2 mM glutamine while both the prostate cancer cell line DU-145 (Stone et al. [1978]) and the ovary tissue cancer cell line OVCAR-3 (Hamilton et al. [1983]) were maintained in RPMI-1640 supplemented with 10% FCS. The pancreatic cancer cell line Colo357 (Morgan et al. [1980]) was grown in DMEM/RPMI (1:1) and the colon adenocarcinoma cell line SW480 (Leibovitz et al. [1976]) in Leibovitz L-15 medium, both containing 10% FCS and 2 mM glutamine. All media were supplemented with 100 U/ml penicillin and 100 μg/ml streptomycin (Gibco, Karlsruhe, Germany) and all cell lines were grown at 37°C in a humidified 5% carbon dioxide atmosphere.
(§2) Subconfluent Frwt648, mKSA, Colo357, OVCAR-3, HT1080, DU-145 and SW480 cells were treated with 2 or 4 μM of compounds 5 or 6 for 48 h. Untreated and DMSO treated cells served as control. Cells were harvested, washed once with phosphate-buffered saline (PBS), and prepared for cell cycle analysis using the “Cycle Test Plus Kit” (BD, San Jose, USA). Cell cycle profiles were obtained using a FACScan flow cytometer and CellQuest software (BD Biosciences, San Jose, USA).

Colo357 cells = test: Flow cytometry cell cycle analysis; format: cell-based, human; conditions: Colo357, 2 or 4 μM, 48 h
Procedure: as §1, §2

HT1080 cells = test: Flow cytometry cell cycle analysis; format: cell-based, human; conditions: HT1080, 2 or 4 μM, 48 h (data not shown)
Procedure: as §1, §2

DU-145 cells = test: Flow cytometry cell cycle analysis; format: cell-based, human; conditions: 48 h (data not shown); for dead cells: DU-145, 2 or 4 μM
Procedure: as §1, §2

SW480 cells = test: Flow cytometry cell cycle analysis; format: cell-based, human; conditions: SW480, 2 or 4 μM, 48 h (data not shown)
Procedure: as §1, §2

mKSA cells = test: Flow cytometry cell cycle analysis; format: cell-based, mouse; conditions: 2 and 4 μM, 48 h, range stated jointly for Frwt648 and mKSA and compounds 5 and 6
Procedure: as §1
Subconfluent Frwt648, mKSA, Colo357, OVCAR-3, HT1080, DU-145 and SW480 cells were treated with 2 or 4 μM of compounds 5 or 6 for 48 h. Untreated and DMSO treated cells served as control. Cells were harvested, washed once with phosphate-buffered saline (PBS), and prepared for cell cycle analysis using the “Cycle Test Plus Kit” (BD, San Jose, USA). […]

GST-rat CK1δ = target: T2, GST-rat CK1δ (Rattus norvegicus, UniProt Q06486); test: In vitro kinase assay, GST-rat CK1δ; format: biochemical; conditions: for GST-wt CK1δ activity in the presence of inhibitor: inhibitor at its determined IC50 concentration (Fig. 7)
T2 construct: made in house; host or cells: bacteria (pGEX-2T)
T2 sequence (Q06486 whole entry): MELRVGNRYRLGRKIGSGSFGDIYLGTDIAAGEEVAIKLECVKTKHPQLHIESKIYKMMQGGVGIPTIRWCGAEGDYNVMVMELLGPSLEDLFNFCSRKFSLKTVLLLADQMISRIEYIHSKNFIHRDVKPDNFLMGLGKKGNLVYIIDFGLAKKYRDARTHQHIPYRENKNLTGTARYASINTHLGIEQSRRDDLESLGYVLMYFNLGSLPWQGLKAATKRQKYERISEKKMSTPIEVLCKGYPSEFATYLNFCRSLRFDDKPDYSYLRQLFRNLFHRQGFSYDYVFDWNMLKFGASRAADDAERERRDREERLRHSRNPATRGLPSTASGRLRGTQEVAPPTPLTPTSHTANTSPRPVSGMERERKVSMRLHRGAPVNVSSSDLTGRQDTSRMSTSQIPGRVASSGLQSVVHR

CK1δkd = target: T3, CK1δkd (Rattus norvegicus, UniProt Q06486); test: In vitro kinase assay, CK1δ kinase domain; format: biochemical; conditions: for inhibition of CK1δkd in initial screen: inhibitor 10 μM, 10 μM ATP (Fig. 1a); for mode of inhibition: inhibitor at IC50 concentration, ATP 0.01-0.5 mM (Fig. 6)
T3 construct: Recombinant CK1δ kinase domain (CK1δkd, NEB, Frankfurt am Main, Germany); purchased NEB, Frankfurt am Main, Germany
T3 sequence (Q06486 9-277 limits assumed): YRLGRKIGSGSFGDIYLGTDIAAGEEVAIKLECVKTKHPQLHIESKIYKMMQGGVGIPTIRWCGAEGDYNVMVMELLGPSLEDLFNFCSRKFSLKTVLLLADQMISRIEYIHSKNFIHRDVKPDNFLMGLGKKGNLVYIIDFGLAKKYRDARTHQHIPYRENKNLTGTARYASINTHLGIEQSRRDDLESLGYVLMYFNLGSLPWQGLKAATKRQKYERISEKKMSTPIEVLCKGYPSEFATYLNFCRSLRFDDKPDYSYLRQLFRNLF

[1] = 0.01 mM ATP, substrate GST-mouse p53^1-64, mean ± SD, read-out: IC50 (μM) GST-CK1δ TV2
[2] = 0.01 mM ATP, substrate GST-mouse p53^1-64, mean ± SD

| Structure (SMILES) | IC50 (GST-mouse CK1δTV2; [1]) [µM] | IC50 (GST-mouse CK1δTV2; IC50 CK1δTV2, 2 h, enzyme induced for 2 h at 37°C) [µM] | IC50 (GST-mouse CK1δTV2; enzyme induced for 14 h at 15°C, read-out: IC50 CK1δTV2, 14 h) [µM] | effect on cell cycle distribution (OVCAR-3 cells; OVCAR-3, 2 or 4 μM) | effect on cell cycle distribution (Colo357 cells) | dead cells (HT1080 cells) [%] | susceptibility of DU-145 to treatment (DU-145 cells; 2 or 4 μM) | dead cells (DU-145 cells) [%] | dead cells (SW480 cells) [%] | dead cells (mKSA cells) | GST-wt CK1δ activity in the presence of inhibitor (GST-rat CK1δ) | higher affinity towards CK1δ than to CK1ε (GST-rat CK1δ; ratio of IC50 values CK1ε / CK1δ) | inhibition of CK1δkd in initial screen (CK1δkd) | mode of inhibition (CK1δkd) | cells died upon treatment (OVCAR-3 cells; OVCAR-3, 4 μM) [%] | IC50 (GST-rat CK1δ; [2]) [µM] | IC50 (CK1δkd; [2]) [µM] |
| --- | --- | --- | --- | --- | --- | --- | --- | --- | --- | --- | --- | --- | --- | --- | --- | --- | --- |
| O=C(Nc1nc2ccc(C(F)(F)F)cc2[nH]1)c1csc(NC(=O)c2ccccc2OC(F)(F)F)n1 [Compound 5, 2-(2-(Trifluoromethoxy)benzamido)-N-(6-(trifluoromethyl)-1H-benzo[d]imidazol-2-yl)thiazole-4-carboxamide] | 0.042 ± 0.02 | 0.064 | 0.043 | slight increase of cells in the G2 phase | more cells appeared to be in the G1 phase | ≤ 20 | unsusceptible | ≤ 20 | ≤ 20 | 35–98% | clearly decreased | fivefold | significant inhibition | ATP competitive inhibitors | – | – | – |
| O=C(Nc1nc2cc(Cl)c(F)cc2[nH]1)c1csc(NC(=O)c2ccccc2OC(F)(F)F)n1 [Compound 6, N-(5-Chloro-6-fluoro-1H-benzo[d]imidazol-2-yl)-2-(2-(trifluoromethoxy)benzamido)thiazole-4-carboxamide] | 0.055 ± 0.02 | – | – | – | more cells appeared to be in the G1 phase | ≤ 20 | – | ≤ 20 | ≤ 20 | 35–98% | clearly decreased | – | significant inhibition | ATP competitive inhibitors | 39 | 0.042 ± 0.05 | 0.085 ± 0.01 |
